The values that follow come from patent US20100226889A1, “HCV Combination Therapies” (priority 2007, published 2010).

Entries after “also recorded” stand apart in the source; their conditions may differ.

Series [1] in a line: Randomized, double-blind, placebo-controlled single-dose escalation study in healthy male volunteers. Type of series: in vivo, human. To be noted: single doses, 25 mg to 1250 mg. The method, then:
Doses of 25 mg to 1250 mg were evaluated.

Series [2] concerns VX-950-resistant variants of HCV. The series is described as follows: IC50 shift of VX-950-resistant variants.
Series [3] can be described thus: Oral bioavailability of VX-950 (statement). As to conditions: in vivo.
In series [4] the test system is genotype 1 HCV. As to conditions: PROVE 1.
Series [5] concerns HCV genotype 1. Description: Phase 1b trial, Study VX04-950-101. As to conditions: subjects infected with HCV genotype 1.

On to `CCC[C@H](NC(=O)[C@@H]1[C@H]2CCC[C@H]2CN1C(=O)[C@@H](NC(=O)[C@@H](NC(=O)c1cnccn1)C1CCCCC1)C(C)(C)C)C(=O)C(=O)NC1CC1` [VX-950], for which, in series [1], the “serious / severe adverse events” value was “No serious adverse events were reported; also recorded: No adverse events were considered to be severe” and the tolerability entry is recorded as “well tolerated at all dose levels”. Also, the “increase in IC50” value in series [2] is given as 7-20 fold. In addition, the oral bioavailability entry in series [3] is given as “orally bioavailable”. In addition, the “pharmacokinetics of telaprevir among the different racial/ethnic groups” value in series [4] was “No differences were observed”. Moreover, the antiviral activity result in series [5] is “substantial antiviral activity”.
